Patent US8633218B2, “8-azabicyclo[3.2.1]oct-2-ene derivatives and their use as monoamine neurotransmitter re-uptake inhibitors” (Aniona APS, priority 2008, dated 2014)
Counter-ions that a name gives are not always drawn.

Legend:
Type in all cases: biochemical
[1] = tested on: serotonine (5-HT) reuptake in synaptosomes; assay: Inhibition of 3H-5-HT reuptake in synaptosomes; settings: read-out: 5-HT-uptake IC50
Experimental: (§1) Compounds were tested for their ability to inhibit the reuptake of the monoamine neurotransmitters dopamine (DA) noradrenaline (NA) and serotonine (5-HT) in synaptosomes as described in WO 97/16451 (NeuroSearch A/S).
(§2) The test values are given as IC50 (the concentration (μM) of the test substance which inhibits the specific binding of ^3H-DA, ^3H-NA, or ^3H-5-HT by 50%).

[2] = tested on: dopamine (DA) reuptake in synaptosomes; assay: Inhibition of 3H-DA reuptake in synaptosomes; settings: read-out: DA-uptake IC50
Experimental: as §1, §2

[3] = tested on: noradrenaline (NA) reuptake in synaptosomes; assay: Inhibition of 3H-NA reuptake in synaptosomes; settings: read-out: NA-uptake IC50
Experimental: as §1, §2

SMILES	IC50 [1] [nM]	IC50 [2] [nM]	IC50 [3] [nM]
COc1ccc2sc(C3=CC4CCC(C3)N4)cc2c1 (stereo not drawn) [Compound 2.1, 3-(5-Methoxy-benzo[b]thiophen-2-yl)-8-aza-bicyclo[3.2.1]oct-2-ene hydrochloric acid salt]	2.5	740	57
Oc1ccc2sc(C3=CC4CCC(C3)N4)cc2c1 (stereo not drawn) [Compound 3.1, 2-(8-Aza-bicyclo[3.2.1]oct-2-en-3-yl)-benzo[b]thiophen-5-ol hydrochloric acid salt]	0.37	94	4.3
